{"source": "ChEMBL document CHEMBL1156714", "about": "“Microwave induced synthesis of novel 8,9-dihydro-7H-pyrimido[4,5-b][1,4]diazepines as potential antitumor agents” (2008)", "assay_type_in_all_cases": "functional", "key": {"[1]": {"tested_on": "DU-145", "test": "Growth inhibition of human DU145 cells after 48 hrs by SRB assay", "settings": "DU-145, 48 h"}, "[2]": {"tested_on": "MDA-MB-468", "test": "Growth inhibition of human MDA-MB-468 cells after 48 hrs by SRB assay", "settings": "MDA-MB-468, 48 h"}, "[3]": {"tested_on": "U-251", "test": "Growth inhibition of human U251 cells after 48 hrs by SRB assay", "settings": "U-251, 48 h"}, "[4]": {"tested_on": "MCF7", "test": "Growth inhibition of human MCF7 cells after 48 hrs by SRB assay", "settings": "MCF7, 48 h"}, "[5]": {"tested_on": "NCI-H522", "test": "Growth inhibition of human NCI-H522 cells after 48 hrs by SRB assay", "settings": "NCI-H522, 48 h"}, "[6]": {"tested_on": "A498", "test": "Growth inhibition of human A498 cells after 48 hrs by SRB assay", "settings": "A498, 48 h"}, "[7]": {"settings": "read-out: LC50 (the source's name)"}}, "data": [{"smiles": "Cc1ccc(C2=Nc3c(N)ncnc3NC(c3ccc4c(c3)OCO4)C2)cc1", "note": "(racemic)", "values": [{"measurement": "GI50", "setting": "[1]", "value": 4.52, "unit": "µM"}, {"measurement": "CC50", "setting": "[1]; [7]", "value": 46.7, "unit": "µM"}, {"measurement": "GI50", "setting": "[2]", "value": 3.68, "unit": "µM"}, {"measurement": "CC50", "setting": "[2]; [7]", "value": "> 100", "unit": "µM"}, {"measurement": "GI50", "setting": "[3]", "value": 4.55, "unit": "µM"}, {"measurement": "CC50", "setting": "[3]; [7]", "value": 44.5, "unit": "µM"}, {"measurement": "GI50", "setting": "[4]", "value": 3.42, "unit": "µM"}, {"measurement": "LC50", "setting": "[4]", "value": "> 100", "unit": "µM"}, {"measurement": "GI50", "setting": "[5]", "value": 3.67, "unit": "µM"}, {"measurement": "CC50", "setting": "[5]; [7]", "value": "> 100", "unit": "µM"}, {"measurement": "GI50", "setting": "[6]", "value": 6.33, "unit": "µM"}, {"measurement": "LC50", "setting": "[6]", "value": "> 100", "unit": "µM"}]}]}
